Experimental data reported in patent US20110034441A1, “INDAZOLES AS WNT/B-CATENIN SIGNALING PATHWAY INHIBITORS AND THERAPEUTIC USES THEREOF” (EPITHERIX, LLC, priority 2009, published 2011).

Tested on: Wnt
Assay: Wnt reporter screening assay: SP5 promoter (TCF/LEF) firefly luciferase in SW480 cells
Format: cell-based
Settings: Homo sapiens; SW480 colon cancer cells with SP5 promoter luciferase reporter; 24 hours after compound addition; normalized to DMSO; read-out: Wnt inhibition, IC50
Excerpt: Another screening assay for Wnt activity is described as follows. Reporter cell lines can be generated by stably transducing cells of cancer cell lines (e.g., colon cancer) with a lentiviral construct that include a wnt-responsive promoter driving expression of the firefly luciferase gene.
Lentiviral constructs can be made in which the SP5 promoter, a promoter having eight TCF/LEF binding sites derived from the SP5 promoter, is linked upstream of the firefly luciferase gene. The lentiviral constructs can also include a hygromycin resistance gene as a selectable marker. The SP5 promoter construct can be used to transduce SW480 cells, a colon cancer cell line having a mutated APC gene that generates a truncated APC protein, leading to de-regulated accumulation of β-catenin.
Cultured SW480 cells bearing a reporter construct can be distributed at approximately 10,000 cells per well into 384 well multiwell plates. Compounds from a small molecule compound library can then be added to the wells in half-log dilutions using a three micromolar top concentration. A series of control wells for each cell type receive only buffer and compound solvent. Twenty-four hours after the addition of compound, reporter activity for luciferases can be assayed, for example, by addition of the BrightGlo luminescence reagent (Promega) and the Victor3 plate reader (Perkin Elmer). Readings can be normalized to DMSO only treated cells, and normalized activities can then be used in the IC50 calculations.

First: O=C(NC1Cc2ccccc2C1)c1ccc2[nH]nc(-c3nc4ccccc4[nH]3)c2c1 [Compound 4]
Second: O=C(NC1CCc2ccccc21)c1ccc2[nH]nc(-c3nc4ccccc4[nH]3)c2c1 (stereo not drawn) [Compound 10]
The IC50 of the first is 1.7-fold lower: 600 nM for the first, 1000 nM for the second.

Going from `O=C(NC1CCCN(S(=O)(=O)c2ccccc2F)C1)c1ccc2[nH]nc(-c3nc4ccccc4[nH]3)c2c1` (stereo not drawn) [Compound 2] to `O=C(NC1CCCN(S(=O)(=O)c2cccc(F)c2)C1)c1ccc2[nH]nc(-c3nc4ccccc4[nH]3)c2c1` (stereo not drawn) [Compound 9], the IC50 rises from 500 nM to 1000 nM (2-fold). The first is the more potent here.

`Cc1ccccc1O[C@@H]1CCN(C(=O)c2ccc3[nH]nc(-c4nc5ccccc5[nH]4)c3c2)C1` [Compound 18] and `Cc1ccccc1OC1CCN(C(=O)c2ccc3[nH]nc(-c4nc5ccccc5[nH]4)c3c2)C1` (stereo not drawn) [Compound 14] are the same in IC50: 1900 nM for the first, 1900 nM for the second.

First: CCNCc1cncc(-c2ccc3[nH]nc(-c4nc5c(-c6ccccc6C)cccc5[nH]4)c3c2)c1C [Compound 42, N-((4-methyl-5-(3-(4-o-tolyl-1H-benzo[d]imidazol-2-yl)-1H-indazol-5-yl)pyridin-3-yl)methyl)ethanamine]
Second: CCNCc1cncc(-c2ccc3[nH]nc(-c4nc5c(-c6ccccc6)cccc5[nH]4)c3c2)c1C [Compound 39, N-((4-methyl-5-(3-(4-phenyl-1H-benzo[d]imidazol-2-yl)-1H-indazol-5-yl)pyridin-3-yl)methyl)ethanamine]
The IC50 of the first is higher: 2500 to 3600 nM for the first, 690 to 730 nM for the second.

`N#Cc1ccc2[nH]nc(-c3nc4ccccc4[nH]3)c2c1` [Compound 27, 3-(1H-benzo[d]imidazol-2-yl)-1H-indazole-5-carbonitrile] and `O=C(O)c1ccc2[nH]nc(-c3nc4ccccc4[nH]3)c2c1` [Compound 29, 3-(1H-benzimidazol-2-yl)-1H-indazole-5-carboxylic acid] cannot be ordered by IC50: greater than 10000 nM for the first, greater than 10000 nM for the second.

Compared with `CCNCc1cncc(-c2ccc3[nH]nc(-c4nc5c(N6CCCC6)cccc5[nH]4)c3c2)c1C` [Compound 36, N-((4-methyl-5-(3-(4-(pyrrolidin-1-yl)-1H-benzo[d]imidazol-2-yl)-1H-indazol-5-yl)pyridin-3-yl)methyl)ethanamine], `CCNCc1cncc(-c2ccc3[nH]nc(-c4nc5c(N6CCCCC6)cccc5[nH]4)c3c2)c1C` [Compound 35, N-((4-methyl-5-(3-(4-(piperidin-1-yl)-1H-benzo[d]imidazol-2-yl)-1H-indazol-5-yl)pyridin-3-yl)methyl)ethanamine] is lower in IC50: 750 nM for the first, 147 to 243 nM for the second.

Going from `CS(=O)(=O)N1CCCC(NC(=O)c2ccc3[nH]nc(-c4nc5ccccc5[nH]4)c3c2)C1` (stereo not drawn) [Compound 7] to `CS(=O)(=O)N1CCCC(CNC(=O)c2ccc3[nH]nc(-c4nc5ccccc5[nH]4)c3c2)C1` (stereo not drawn) [Compound 13], the IC50 rises from 800 nM to 1800 nM (2.2-fold). The first is the more potent here.

First: COc1ccc(S(=O)(=O)N2CCCC(NC(=O)c3ccc4[nH]nc(-c5nc6ccccc6[nH]5)c4c3)C2)cc1 (stereo not drawn) [Compound 11]
Second: O=C(NC1CCN(Cc2ccccc2)CC1)c1ccc2[nH]nc(-c3nc4ccccc4[nH]3)c2c1 [Compound 19, 3-(1H-benzo[d]imidazol-2-yl)-N-(1-benzylpiperidin-4-yl)-1H-indazole-5-carboxamide]
The IC50 of the first is higher: 1300 nM for the first, 330 to 400 nM for the second.

First: CC[C@H](C)[C@@H](CO)NC(=O)c1ccc2[nH]nc(-c3nc4ccccc4[nH]3)c2c1 [Compound 17]
Second: CCC(CC)NC(=O)c1ccc2[nH]nc(-c3nc4ccccc4[nH]3)c2c1 [Compound 1, 3-(1H-benzo[d]imidazol-2-yl)-N-(pentan-3-yl)-1H-indazole-5-carboxamide]
The IC50 of the first is higher: 750 nM for the first, 200 to 310 nM for the second.

`O=C(c1ccc2[nH]nc(-c3nc4ccccc4[nH]3)c2c1)N1CCCC1c1ccccc1` (stereo not drawn) [Compound 16] and `Cc1ccccc1C1CCCN1C(=O)c1ccc2[nH]nc(-c3nc4ccccc4[nH]3)c2c1` (stereo not drawn) [Compound 15] are within 1.5-fold of each other in IC50: 3100 nM for the first, 3000 nM for the second.

`CCNCc1cncc(-c2ccc3[nH]nc(-c4nc5c(-n6cnc(C)c6)cccc5[nH]4)c3c2)c1C` [Compound 32, N-((4-methyl-5-(3-(4-(4-methyl-1H-imidazol-1-yl)-1H-benzo[d]imidazol-2-yl)-1H-indazol-5-yl)pyridin-3-yl)methyl)ethanamine] and `Cc1cn(-c2cccc3[nH]c(-c4n[nH]c5ccc(-c6cnccc6C)cc45)nc23)cn1` [Compound 34, 3-(4-(4-methyl-1H-imidazol-1-yl)-1H-benzo[d]imidazol-2-yl)-5-(4-methylpyridin-3-yl)-1H-indazole] cannot be ordered by IC50: 40 to 63 nM for the first, 10 to 46 nM for the second.

First: Cc1ccc(CN2CCN(C(=O)c3ccc4[nH]nc(-c5nc6ccccc6[nH]5)c4c3)CC2)cc1 [Compound 21, (3-(1H-benzo[d]imidazol-2-yl)-1H-indazol-5-yl)(4-(4-methylbenzyl)piperazin-1-yl)methanone]
Second: CN1CCN(C(=O)c2ccc3[nH]nc(-c4nc5ccccc5[nH]4)c3c2)CC1 [Compound 25, [3-(1H-benzimidazol-2-yl)-1H-indazole-5-yl]-(4-methyl-piperazin-1-yl)-methanone]
The IC50 of the first is lower: 5300 nM for the first, greater than 10000 nM for the second. The first is the more potent here.

Going from `O=C(c1ccc2[nH]nc(-c3nc4ccccc4[nH]3)c2c1)N1CCCCC1` [Compound 26, (3-(1H-benzo[d]imidazol-2-yl)-1H-indazol-5-yl)(piperidin-1-yl)methanone] to `O=C(c1ccc2[nH]nc(-c3nc4ccccc4[nH]3)c2c1)N1CCCC1` [Compound 20, (3-(1H-benzo[d]imidazol-2-yl)-1H-indazol-5-yl)(pyrrolidin-1-yl)methanone], the IC50 falls from greater than 10000 nM to 606 nM. The second is the more potent here.

`Cc1ccc(-n2nc(C(N)=O)c3ccc4[nH]ncc4c32)cc1` [Compound 123] and `NC(=O)c1ccc2[nH]nc(-c3nc4ccccc4[nH]3)c2c1` [Compound 28, 3-(1H-benzo[d]imidazol-2-yl)-1H-indazole-5-carboxamide] are within 1.5-fold of each other in IC50: 1220 nM for the first, 1000 nM for the second.

Going from `CCNCc1cncc(-c2ccc3[nH]nc(-c4nc5ccccc5[nH]4)c3c2)c1C` [Compound 31, N-((5-(3-(1H-benzo[d]imidazol-2-yl)-1H-indazol-5-yl)-4-methylpyridin-3-yl)methyl)ethanamine] to `CCNCc1cncc(-c2ccc3[nH]nc(-c4nc5ccc(COC)cc5[nH]4)c3c2)c1C` [Compound 33], the IC50 rises from 243 nM to 680 nM (2.8-fold).

First: CCNCc1cncc(-c2ccc3[nH]nc(-c4nc5c(-c6cccc(C)c6)cccc5[nH]4)c3c2)c1C [Compound 40, N-((4-methyl-5-(3-(4-m-tolyl-1H-benzo[d]imidazol-2-yl)-1H-indazol-5-yl)pyridin-3-yl)methyl)ethanamine]
Second: CCNCc1cncc(-c2ccc3[nH]nc(-c4nc5c(-c6ccc(C)cc6)cccc5[nH]4)c3c2)c1C [Compound 41, N-((4-methyl-5-(3-(4-p-tolyl-1H-benzo[d]imidazol-2-yl)-1H-indazol-5-yl)pyridin-3-yl)methyl)ethanamine]
The IC50 of the first is higher: 670 to 860 nM for the first, 330 to 470 nM for the second. The second is the more potent here.

`CCNCc1cncc(-c2ccc3[nH]nc(-c4nc5c(-c6cccnc6)cccc5[nH]4)c3c2)c1C` [Compound 37, N-((4-methyl-5-(3-(4-(pyridin-3-yl)-1H-benzo[d]imidazol-2-yl)-1H-indazol-5-yl)pyridin-3-yl)methyl)ethanamine] and `CCNCc1cncc(-c2ccc3[nH]nc(-c4nc5ccccc5[nH]4)c3c2)c1` [Compound 38, N-((5-(3-(1H-benzo[d]imidazol-2-yl)-1H-indazol-5-yl)pyridin-3-yl)methyl)ethanamine] cannot be ordered by IC50: 200 to 240 nM for the first, 124 to 235 nM for the second.

Compared with `CN(C)C(=O)c1ccc2[nH]nc(-c3nc4ccccc4[nH]3)c2c1` [Compound 30, 3-(1H-benzo[d]imidazol-2-yl)-N,N-dimethyl-1H-indazole-5-carboxamide], `O=C(c1ccc2[nH]nc(-c3nc4ccccc4[nH]3)c2c1)N1CCSCC1` [Compound 24, (3-(1H-benzo[d]imidazol-2-yl)-1H-indazol-5-yl)(thiomorpholino)methanone] is 4-fold higher in IC50: 2000 nM for the first, 8000 nM for the second.

`O=C(NCc1ccccc1)c1cncc(-c2ccc3[nH]nc(-c4nc5ccccc5[nH]4)c3c2)c1` [Compound 45, 5-(3-(1H-benzo[d]imidazol-2-yl)-1H-indazol-5-yl)-N-benzylnicotinamide] and `CCNC(=O)c1cncc(-c2ccc3[nH]nc(-c4nc5ccccc5[nH]4)c3c2)c1` [Compound 44, 5-(3-(1H-benzo[d]imidazol-2-yl)-1H-indazol-5-yl)-N-ethyl nicotinamide] cannot be ordered by IC50: 1230 to 2280 nM for the first, 960 to 1560 nM for the second.

Going from `O=C(NCC1(O)CCCCC1)c1ccc2[nH]nc(-c3nc4ccccc4[nH]3)c2c1` [Compound 12] to `CN1CCCCC1CNC(=O)c1ccc2[nH]nc(-c3nc4ccccc4[nH]3)c2c1` (stereo not drawn) [Compound 5], the IC50 falls from 1600 nM to 630 nM (2.5-fold). The second is the more potent here.

Going from `CC(C)CC(=O)N1CC2CC1CN2C(=O)c1ccc2[nH]nc(-c3nc4ccccc4[nH]3)c2c1` (stereo not drawn) [Compound 8] to `CN1CCC(CNC(=O)c2ccc3[nH]nc(-c4nc5ccccc5[nH]4)c3c2)C1` (stereo not drawn) [Compound 3], the IC50 falls from 930 nM to 580 nM (1.6-fold).

Compared with `Cc1cc(C)cc(-c2ccc3c(NC(=O)NCC4CC4)n[nH]c3c2)c1` [Compound 48], `CN1CCCN(C(=O)c2ccc3[nH]nc(-c4nc5ccccc5[nH]4)c3c2)CC1` [Compound 22, (3-(1H-benzo[d]imidazol-2-yl)-1H-indazol-5-yl)(4-methyl-1,4-diazepan-1-yl)methanone] is 4.7-fold higher in IC50: 390 nM for the first, 1850 nM for the second.

Same assay, conditions: SW480 colon cancer cells with SP5 promoter luciferase reporter; 24 hours after compound addition; normalized to DMSO; read-out: Wnt inhibition, IC50

Compound “N-ethyl-4-methyl-5-(3-(4-(4-methyl-1H-imidazol-1-yl)-1H-benzo[d]imidazol-2-yl)-1H-indazol-5-yl)nicotinamide [Compound 43]” has an IC50 of 77 to 96 nM.
